Assays:
[1] = molar enthalpy of vaporization or sublimation; conditions: 304.79 K; Liquid; Static calorimetry
[2] = for vapor or sublimation pressure: Liquid, Calculated from knudsen effusion weight loss

CCCCCCCCCC(=O)OCC [ethyl decanoate]
Conditions	molar enthalpy [kcal/mol]
[1]	16.7

[2]
Conditions	Triple point temperature [K]	vapor or sublimation pressure [kPa]
293.77 K	–	0.00169
298.67 K	–	0.00267
298.72 K	–	0.00267
303.68 K	–	0.00414
308.61 K	–	0.00648
313.57 K	–	0.01
318.32 K	–	0.0152
323.24 K	–	0.0219
Crystal	253.6	–
